Patent US20100022483A1, “Substituted Tetracycline Compounds” (Paratek Pharmaceuticals, Inc., priority 2008, published 2010)
Converted amounts (≈) assume the structure as drawn. Where two headings read alike, the source gives them in different places.

Experiments:
gram positive bacteria = experiment: In vitro anti-bacterial activity assay (broth dilution MIC), gram positive bacteria; format: cell-based, S. aureus; conditions: 18 h
Text: (§1) Bacterial infections may be caused by a wide variety of gram positive and gram negative bacteria. Some of the compounds of the invention are useful as antibiotics against organisms which are resistant and/or sensitive to other tetracycline compounds. The antibiotic activity of the tetracycline compounds of the invention may by using the in vitro standard broth dilution method described in Waitz, J. A., CLSI, Document M7-A2, vol. 10, no. 8, pp. 13-20, 2nd edition, Villanova, Pa. (1990).
(§2) The following assay was used to determine the efficacy of the tetracycline compounds against gram positive and gram negative bacteria. 2 mg of each compound was dissolved in 100 μl of DMSO. […] The tetracycline compound solutions were diluted to 50 μL volumes, with a test compound concentration of 0.098 μg/ml. Optical density (OD) determinations were made from fresh log-phase broth cultures of the test strains. Dilutions were made to achieve a final cell density of […] CFU/ml. At OD=1, cell densities for different genera were approximately:
(§3) 50 μl of the cell suspensions were added to each well of microtiter plates. The final cell density was approximately 5×10^5 CFU/ml. These plates were incubated at 35° C. in an ambient air incubator for approximately 18 hours. The plates were read with a microplate reader and were visually inspected when necessary. The MIC was defined as the lowest concentration of the tetracycline compound that inhibits growth. Table 3 includes MIC data for several substituted tetracycline compounds.

gram negative bacteria = experiment: In vitro anti-bacterial activity assay (broth dilution MIC), gram negative bacteria; format: cell-based, E. coli
Text: as §1, §2, §3

[1] = Mammalian cytotoxicity assay (resazurin), COS-1 cells; format: cell-based; conditions: African green monkey, read-out: Cytotox. COS-1
Protocol: (§4) COS-1 and CHO-K1 cell suspensions were prepared, seeded into 96-well tissue culture treated black-walled microtiter plates (density determined by cell line), and incubated overnight at 37° C., in 5% CO2 and approximately 95% humidity. The following day, serial dilutions of compound were prepared under sterile conditions and transferred to cell plates. Cell/Compound plates were incubated under the above conditions for 24 hours. Following the incubation period, media/compound was aspirated and 50 μl of resazurin (0.042 mg/ml in PBS w/Ca and Mg) is added. The plates were then incubated under the above conditions for 2 hours and then placed in the dark at room temperature for an additional 30 minutes. Fluorescence measurements were taken (excitation 535 nm, emission 590 nm). The IC50 (concentration of compound causing 50% growth inhibition) was then calculated. Table 3 includes IC50 data for several substituted tetracycline compounds.

in vitro = format: cell-based; conditions: Chinese hamster, Cytotox. CHO-K1
Protocol: as §4

3T3 fibroblast cells = experiment: In vitro phototoxicity assay (neutral red; UV light-treated vs dark control plates); format: cell-based; conditions: for Photo Toxicity UV Tox50: UV light 50 minutes; for Photo Toxicity Dark Tox50: dark control plate
Protocol: 3T3 fibroblast cells were harvested and plated at a concentration of 1×10^5 cells/mL and the plates were incubated overnight at 37° C., in 5% CO2 and approximately 95% humidity. On the following day the medium was removed from the plates and replaced with Hanks' Balanced Salt Solution (HBSS). Compound dilutions were made in HBSS and added to the plates. For each compound tested, a duplicate plate was prepared that was not exposed to light as a control for compound toxicity. Plates were then incubated in a dark drawer (for controls), or under UV light (meter reading of 1.6-1.8 mW/cm^2) for 50 minutes. Cells were then washed with HBSS, fresh medium was added, and plates were incubated overnight as described above. The following day neutral red was added as an indicator of cell viability. The plates were then incubated for an additional 3 hours. Cells were then washed with HBSS and blotted on absorbent paper to remove excess liquid. A solution of 50% EtOH, 10% glacial acetic acid was added and after 20 minutes incubation the plate's absorbance at 535 nm was read using a Wallac Victor 5 spectrophotometer. The phototoxicity reflected the difference between the light-treated and control cultures. Table 3 includes phototoxicity (μM) data for several substituted tetracycline compounds.

[2] = Staphylococcus aureus, S. aureus MRSA5, read-out: Median MIC's G+ S. aureus MRSA5
[3] = Staphylococcus aureus, S. aureus RN450, read-out: Median MIC's G+ S. aureus RN450
[4] = Streptococcus pneumoniae, S. pneumoniae 157E-Strep, read-out: Median MIC's G+ S. pneumoniae 157E-Strep
[5] = Escherichia coli, 18 h, E. coli D1 209, read-out: Median MIC's G− E. coli D1 209
[6] = Escherichia coli, 18 h, E. coli MG 1655, read-out: Median MIC's G− E. coli MG 1655
[7] = Escherichia coli, ATCC25922, 18 h, E. coli ATCC 25922, read-out: Median MIC's G− E. coli ATCC 25922
[8] = Pseudomonas aeruginosa, 18 h, P. aeruginosa K201 PAO6609, read-out: Median MIC's G− P. aeruginosa K201 PAO6609

Row | Structure (SMILES) | MIC (gram positive bacteria; [2]) | MIC (gram positive bacteria; [3]) | MIC (gram positive bacteria; [4]) | MIC (gram negative bacteria; [5]) | MIC (gram negative bacteria; [6]) | MIC (gram negative bacteria; [7]) | MIC (gram negative bacteria; [8]) | IC50 at 24 h [1] | IC50 at 24 h (in vitro) | Photo Toxicity UV Tox50 (3T3 fibroblast cells) | Photo Toxicity Dark Tox50 (3T3 fibroblast cells) | MIC (gram negative bacteria; Escherichia coli, 18 h, read-out: Median MIC's G− E. coli D1 209, E. coli D1 209)
1 | CN(C)[C@@H]1C(O)=C(C(N)=O)C(=O)[C@@]2(O)C(O)=C3C(=O)c4c(O)ccc(C(=O)CNCc5cccn5C)c4C[C@H]3C[C@@H]12 [CE] | 4 µg/mL (≈ 7.08 µM) | 0.25 µg/mL (≈ 0.443 µM) | 0.5 µg/mL (≈ 0.886 µM) | 64 µg/mL (≈ 113 µM) | 4 µg/mL (≈ 7.08 µM) | 4 µg/mL (≈ 7.08 µM) | 64 µg/mL (≈ 113 µM) | > 41.4 µM | > 41.4 µM | >133.53 µM | >133.53 µM | 
2 | CO/N=C/c1ccc(-c2ccc(O)c3c2C[C@H]2C[C@H]4[C@H](N(C)C)C(O)=C(C(N)=O)C(=O)[C@@]4(O)C(O)=C2C3=O)o1 (stereo in doubt) [AZ] | 1 µg/mL (≈ 1.86 µM) | 0.13 µg/mL (≈ 0.242 µM) | 0.06 µg/mL (≈ 0.112 µM) | 64 µg/mL (≈ 119 µM) |  |  |  | < 2.44 µM | 3.04 µM | >156.79 µM | >156.79 µM | 
3 | CCN(CC)CCNC(=O)c1cccc(-c2ccc(O)c3c2C[C@H]2C[C@H]4[C@H](N(C)C)C(O)=C(C(N)=O)C(=O)[C@@]4(O)C(O)=C2C3=O)c1 [E, (4S,4aS,5aR,12aS)-7-[3-(2-Diethylamino-ethylcarbamoyl)-phenyl]-4-dimethylamino-3,10,12,12a-tetrahydroxy-1,1′-dioxo-1,4,4a,5,5a,6,11,12a-octahydro-naphthacene-2-carboxylic acid amide] | 16 µg/mL (≈ 25.3 µM) | 0.5 µg/mL (≈ 0.79 µM) | 0.125 µg/mL (≈ 0.198 µM) | 64 µg/mL (≈ 101 µM) | 8 µg/mL (≈ 12.6 µM) | 8 µg/mL (≈ 12.6 µM) | 64 µg/mL (≈ 101 µM) | > 139 µM | > 139 µM | >138.88 µM | >138.88 µM | 
4 | CNCCNC(=O)c1cccc(-c2ccc(O)c3c2C[C@H]2C[C@H]4[C@H](N(C)C)C(O)=C(C(N)=O)C(=O)[C@@]4(O)C(O)=C2C3=O)c1 [M] | 64 µg/mL (≈ 108 µM) | 4 µg/mL (≈ 6.77 µM) | 32 µg/mL (≈ 54.2 µM) | 64 µg/mL (≈ 108 µM) | 64 µg/mL (≈ 108 µM) | 64 µg/mL (≈ 108 µM) | 64 µg/mL (≈ 108 µM) | > 143 µM | > 143 µM | >143.16 µM | >143.16 µM | 
5 | COCc1cccc(-c2ccc(O)c3c2C[C@H]2C[C@H]4[C@H](N(C)C)C(O)=C(C(N)=O)C(=O)[C@@]4(O)C(O)=C2C3=O)c1 [DB] | 0.5 µg/mL (≈ 0.935 µM) | 0.06 µg/mL (≈ 0.112 µM) | 0.06 µg/mL (≈ 0.112 µM) | 64 µg/mL (≈ 120 µM) |  |  |  | 10.4 µM | 13.2 µM |  |  | 
6 | COC(=O)c1ccc(-c2ccc(O)c3c2C[C@H]2C[C@H]4[C@H](N(C)C)C(O)=C(C(N)=O)C(=O)[C@@]4(O)C(O)=C2C3=O)cc1 [AR] | 0.315 µg/mL (≈ 0.574 µM) | 0.06 µg/mL (≈ 0.109 µM) | 0.25 µg/mL (≈ 0.456 µM) |  |  |  |  | 4.8 µM | < 2.53 µM |  |  | 64 µg/mL (≈ 117 µM)
7 | CN1CCN(Cc2ccc(-c3ccc(O)c4c3C[C@H]3C[C@H]5[C@@H](N(C)C)C(O)=C(C(N)=O)C(=O)[C@@]5(O)C(O)=C3C4=O)o2)CC1 [AY] | 32 µg/mL (≈ 54 µM) | 0.5 µg/mL (≈ 0.844 µM) | 0.25 µg/mL (≈ 0.422 µM) | 64 µg/mL (≈ 108 µM) |  |  |  | > 32 µM | > 32 µM |  |  | 
8 | CN(C)C(=O)c1cccc(-c2ccc(O)c3c2C[C@H]2C[C@H]4[C@H](N(C)C)C(O)=C(C(N)=O)C(=O)[C@@]4(O)C(O)=C2C3=O)c1 [AC] | 16 µg/mL (≈ 28.5 µM) | 0.25 µg/mL (≈ 0.445 µM) |  | 64 µg/mL (≈ 114 µM) |  |  |  | > 37.6 µM | > 9.4 µM |  |  | 
9 | CN(C)[C@@H]1C(O)=C(C(N)=O)C(=O)[C@@]2(O)C(O)=C3C(=O)c4c(O)ccc(-c5ccc(CN6CCOCC6)o5)c4C[C@H]3C[C@@H]12 [AX] | 4 µg/mL (≈ 6.9 µM) | 0.06 µg/mL (≈ 0.104 µM) | 0.06 µg/mL (≈ 0.104 µM) | 8 µg/mL (≈ 13.8 µM) |  |  |  | 27.1 µM | > 32.6 µM |  |  | 
10 | CN(C)c1cc(-c2ccc(CN3CCN(CCO)CC3)o2)c(O)c2c1C[C@H]1C[C@H]3[C@H](N(C)C)C(O)=C(C(N)=O)C(=O)[C@@]3(O)C(O)=C1C2=O [BA] | 64 µg/mL (≈ 96.1 µM) | 1 µg/mL (≈ 1.5 µM) | 2 µg/mL (≈ 3 µM) | 64 µg/mL (≈ 96.1 µM) |  |  |  | > 111 µM | > 111 µM |  |  | 
11 | CN(C)[C@@H]1C(O)=C(C(N)=O)C(=O)[C@@]2(O)C(O)=C3C(=O)c4c(O)ccc(-c5ccccc5)c4C[C@H]3C[C@@H]12 [AQ] | 0.25 µg/mL (≈ 0.51 µM) | 0.06 µg/mL (≈ 0.122 µM) | 0.06 µg/mL (≈ 0.122 µM) | 8 µg/mL (≈ 16.3 µM) |  |  |  | 6.06 µM | 6.91 µM |  |  | 
12 | CC(=O)c1cccc(-c2ccc(O)c3c2C[C@H]2C[C@H]4[C@H](N(C)C)C(O)=C(C(N)=O)C(=O)[C@@]4(O)C(O)=C2C3=O)c1 [AS] | 0.5 µg/mL (≈ 0.939 µM) | 0.06 µg/mL (≈ 0.113 µM) | 0.06 µg/mL (≈ 0.113 µM) | 64 µg/mL (≈ 120 µM) |  |  |  |  |  |  |  | 
13 | COc1ccc(CNCc2ccc(-c3ccc(O)c4c3C[C@H]3C[C@H]5[C@H](N(C)C)C(O)=C(C(N)=O)C(=O)[C@@]5(O)C(O)=C3C4=O)cc2)cc1 (stereo in doubt) [AW] | 1 µg/mL (≈ 1.56 µM) | 0.06 µg/mL (≈ 0.0938 µM) | 0.06 µg/mL (≈ 0.0938 µM) | 1 µg/mL (≈ 1.56 µM) |  |  |  | < 1.97 µM | 13.5 µM |  |  | 
14 | CC(C)OC(=O)c1cccc(-c2ccc(O)c3c2C[C@H]2C[C@H]4[C@H](N(C)C)C(O)=C(C(N)=O)C(=O)[C@@]4(O)C(O)=C2C3=O)c1 [AU] | 1 µg/mL (≈ 1.73 µM) | 0.25 µg/mL (≈ 0.434 µM) | 0.5 µg/mL (≈ 0.867 µM) | 64 µg/mL (≈ 111 µM) |  |  |  | 4.56 µM | 6.12 µM |  |  | 
